Reference: patent US20200055821A1, “METHOD FOR MANUFACTURING DIASTEREOMER OF CITRIC ACID DERIVATIVE” (OTSUKA PHARMACEUTICAL FACTORY, INC., priority 2017, published 2020)

Experiments:
[1] = stability of compound A in aqueous solution by pH (hydrolysis seen by HPLC); type: physicochemical
Description: The difficult point when the crystal of the compound A is obtained by the present method is in removing citric acid from the aqueous solution containing the compound A and citric acid in an acidic condition. Since the compound A is unstable in a neutral to alkaline (pH of 5 or higher) aqueous solution, in order to suppress decomposition of the compound A, maintenance of an acidic condition is important. Therefore, the aqueous solution containing the compound A and citric acid and having a pH of 2.0 or lower to be used in the step (a) may be an aqueous solution whose pH is preferably 0.6 to 1.8 and most preferably 1.0 to 1.6. […]
The purified precipitate obtained at a pH of 3.6 by the above operation and the purified precipitate obtained at a pH of 6.0 thereby were each evaluated by qualitative analysis using HPLC (FIG. 5, FIG. 6). The each precipitate (about 10 mg) was dissolved in purified water (about 1 mL), diluted 40-fold with a 10 mM perchloric acid solution being a mobile phase of the qualitative analysis using HPLC, and analyzed (by being diluted with the 10 mM perchloric acid solution, which was an acidic solvent, the Ca salts of the compound A were converted to the compound A, thus the detection was made as the compound A.). […]

[2] = solubility in isopropanol-water mixed solvent; type: physicochemical; conditions: mixed solvent of isopropanol and water, ratio of isopropanol 40% or higher
Procedure: A highly purified crystalline powder of the compound A was obtained by repeating three times the same operation as in the recrystallization described in the paragraph of Example 3. 100 mL of purified water (Japanese Pharmacopoeia purified water) was added to 10 g of the crystalline powder, which was then dissolved by heating the resultant in a water bath at 50° C. The resultant solution was filtered by using a membrane filter (Merck Millipore) of 0.22 μm in pore size, and the resultant filtrate was collected. The filtrate was concentrated by using an evaporator on a water bath at 40° C. to thereby collect the resultant as an about 50 ml of a solution. This solution was concentrated and […] to thereby become a solution in a supersaturated state. The solution as it was in the heated state (40° C.) was dispensed in test tubes with a lid so as to have solvent ratios indicated in the following Table (Table 4) to thereby produce solutions having mixed solvents. Specifically, by adding 100 μL of organic solvents of methanol, ethanol, acetone and the like to 400 μL of the supersaturated solution, there was made a solution having a water ratio in the mixed solvent of 80%. […]

liver disorder = conditions: known active substance; cited from earlier work
[3] = hygroscopicity and handling of the solid; type: physicochemical; conditions: when concentrated and solidified / powder
Description: On the other hand, the crystal of the compound A was a non-hygroscopic powder, which was easily handled.

hydrolysis of the imide structure ([1]; alkali added for the pH to be 6.0, 80% ethanol precipitation, HPLC)	stability in aqueous solution ([1]; neutral to alkaline (pH of 5 or higher) aqueous solution)	solubility [2]	hygroscopicity [3]	Structure (SMILES)	inhibitory effect against liver disorder (liver disorder)
hydrolysis of the compound A progressed	unstable	decreased		O=C(O)CC(C(=O)O)N1C(=O)CC(O)(CC(=O)O)C1=O (stereo not drawn) [compound A]	inhibitory effect against liver disorder
			non-hygroscopic	O=C(O)CC(C(=O)O)N1C(=O)C[C@@](O)(CC(=O)O)C1=O (stereo partly drawn) [crystal of the compound A]	
			had hygroscopicity	O=C(O)C[C@@H](C(=O)O)N1C(=O)C[C@@](O)(CC(=O)O)C1=O [noncrystal of the compound A]	
